# ChEMBL document CHEMBL1201862, “PubChem BioAssay data set” (2004)
#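 Interpolation was linear, between the two tested concentrations surrounding the appropriate level; five concentrations were tested over 48 hours in 96-well plates. Here, GI50 denotes the concentration required for 50% inhibition of growth.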 The source made the active and inactive calls. No stated cut-off is given here; in the data, active = GI50 up to about 1.1 µM and inactive = higher.
# Tests used:
# Assay in all cases: DTP human tumour cell line panel, 48 h
# DMS-114 = test system: DMS-114
# LXFL 529 = test system: LXFL 529
# KM-20L2 = test system: KM-20L2
# SNB-78 = test system: SNB-78
# RXF 631 = test system: RXF 631
# HOP-18 = test system: HOP-18
# M19-MEL = test system: M19-MEL
# Hs-578T = test system: Hs-578T
# XF498 = test system: XF498
Compound,GI50 (DMS-114),GI50 (KM-20L2),GI50 (Hs-578T),other results
O=C1c2ccccc2C2(O)N(c3ccccc3)C(=S)N(c3ccccc3)C12O (stereo not drawn),> 100 µM (inactive),> 100 µM (inactive),–,GI50 (LXFL 529): > 100 µM (inactive); GI50 (SNB-78): > 100 µM (inactive); GI50 (RXF 631): > 100 µM (inactive); GI50 (HOP-18): > 100 µM (inactive); GI50 (M19-MEL): > 100 µM (inactive)
CCOc1ccc(-n2c(=O)n3c(Nc4ccc(Cl)cc4)nc4c(c(=O)n(C)c(=O)n4C)n3c2=O)cc1,–,–,33 µM (inactive),–
CCOc1ccccc1/N=N/C1C(=O)N(C(=O)CC(=O)Nc2ccccc2OC)N=C1C (stereo not drawn),–,–,1.78 µM (inactive),–
[O-][n+]1nc(N2CCOCC2)nc2ccccc21,–,–,> 100 µM (inactive),–
COc1ccc(NC(=O)CSc2nc(C)nc3c2sc(=S)n3-c2ccccc2)cc1,–,–,3.75 µM (inactive),–
COc1ccccc1NC(=O)C1=C(C)NC(C)=C(C(=O)Nc2ccccc2OC)C1C1=CC=COC1,7.24 µM (inactive),6.07 µM (inactive),–,GI50 (LXFL 529): 11.1 µM (inactive); GI50 (SNB-78): 23.3 µM (inactive); GI50 (HOP-18): 28.5 µM (inactive); GI50 (M19-MEL): 8.97 µM (inactive)
COc1ccc2c(c1)[C@@H]1c3cc(OC)c(OC)cc3CCN1CCC2,–,–,> 100 µM (inactive),–
Cc1nc(Cl)c(CBr)c(Cl)n1,–,–,1.49 µM (inactive),–
O=c1cc(-c2ccccc2)oc2cc(Oc3nnnn3-c3ccccc3)ccc12,–,–,25.4 µM (inactive),–
CC1(c2cccc(C3CC4(CCC3=O)OCCCCO4)c2)OCCO1 (stereo not drawn),7.96 µM (inactive),> 100 µM (inactive),–,GI50 (LXFL 529): > 100 µM (inactive); GI50 (SNB-78): > 100 µM (inactive); GI50 (HOP-18): > 100 µM (inactive); GI50 (M19-MEL): > 100 µM (inactive)
COc1cc(O)c2c(c1)OCC1(Cc3cc(OC)c(OC)cc31)C2=O (stereo not drawn),–,–,42.5 µM (inactive),–
O=C(c1ccccc1)N1C(=O)N(c2ccccc2)C(=N/c2ccccc2)/C1=N\c1ccccc1,–,–,20.3 µM (inactive),–
CS(=O)(=O)Nc1ccc(NCc2c[nH]c3ccc4ncccc4c23)cc1,–,–,22.3 µM (inactive),–
Cc1ccc(S(=O)(=O)OCC/C(=C\[Si](C)(C)C)c2ccccc2)cc1,> 100 µM (inactive),> 100 µM (inactive),–,GI50 (LXFL 529): > 100 µM (inactive); GI50 (XF498): > 100 µM (inactive); GI50 (HOP-18): > 100 µM (inactive); GI50 (M19-MEL): > 100 µM (inactive)
CC1(C)CO[P@@](=S)(c2ccccn2)O[C@@H]1c1ccccc1,–,–,> 100 µM (inactive),–
O=C(CC(=O)N(C(=O)c1ccccc1)c1ccc(Cl)cc1)N/N=C\c1ccccc1O,–,–,26 µM (inactive),–
C/C(N)=C/C(=O)c1[nH]c(C(=O)O)cc1C1CCN(Cc2ccccc2)C1=O (stereo not drawn),–,–,27.9 µM (inactive),–
N[C@H](C(=O)O)[C@H]1ON=C(Cl)[C@@H]1O,6.61 µM (inactive),0.343 µM (active),8.65 µM (inactive),GI50 (XF498): 59 µM (inactive); GI50 (SNB-78): 28.1 µM (inactive); GI50 (HOP-18): > 360 µM (inactive); GI50 (M19-MEL): 1.87 µM (inactive)

Compound,GI50 (DMS-114),GI50 (KM-20L2),GI50 (Hs-578T),other results
CC1OC(OC2C(O[C@H]3CC[C@@H]4C(=CC[C@@H]5[C@@]4(C)C(=O)C[C@]4(C)[C@@H]([C@H](C)CC[C@@H](O)C(C)(C)O)CC[C@@]54C)C3(C)C)OC(CO)C(O)C2O)C(O)C(O)C1O (stereo partly drawn),–,–,> 100 µM (inactive),–
COc1ccc(OC)c2cc(C3(C)SCCCS3)ccc12,92.5 µM (inactive),81.7 µM (inactive),–,GI50 (LXFL 529): > 100 µM (inactive); GI50 (XF498): 61.7 µM (inactive); GI50 (SNB-78): 45.9 µM (inactive); GI50 (HOP-18): > 100 µM (inactive); GI50 (M19-MEL): > 100 µM (inactive)
CN(CCCCCl)P(=O)(OCc1ccc([N+](=O)[O-])o1)OCC1OC(n2ccc(N)nc2=O)C(O)C1O (stereo not drawn),–,–,1.26 µM (inactive),–
Fc1cccc(Cl)c1C1SCc2nc3cc4ccccc4cc3n21 (stereo not drawn),–,–,28.7 µM (inactive),–
CC(=O)c1ccc(/N=N/c2ccc3nonc3c2N)cc1,–,–,> 100 µM (inactive),–
COc1cccc(C2c3cc4c(cc3OC(N3CCCCC3)C2C)OCO4)c1OC (stereo not drawn),–,–,4.31 µM (inactive),–
NC(=O)CC(N)C(N)=O (stereo not drawn),–,–,> 100 µM (inactive),–
OCCN1CN(c2nc(N3CN(CCO)C3)nc(N3CN(CCO)C3)n2)C1,–,–,35.2 µM (inactive),–
O=C(NC1CC1)c1c(O)[nH]c(=S)[nH]c1=O,> 100 µM (inactive),> 100 µM (inactive),–,GI50 (LXFL 529): > 100 µM (inactive); GI50 (SNB-78): > 100 µM (inactive); GI50 (RXF 631): > 100 µM (inactive); GI50 (HOP-18): > 100 µM (inactive); GI50 (M19-MEL): > 100 µM (inactive)
COc1cc2c(cc1OC)C(CCN)=NCC2,–,–,27.7 µM (inactive),–
N#C[BH2-][n+]1ccc(C(=O)NNCc2ccc(F)cc2)cc1,–,–,> 100 µM (inactive),–
C=C1C(=O)C23CC1CCC2C12CO[C@H](O)[C@H]1C(C)(C)[C@H](OC(C)=O)C[C@H]2OC3=O (stereo partly drawn),–,–,34.4 µM (inactive),–
COc1ncn(C2C=C(CO)C(O)C2O)c(=O)n1 (stereo not drawn),> 100 µM (inactive),> 100 µM (inactive),–,GI50 (LXFL 529): > 100 µM (inactive); GI50 (SNB-78): > 100 µM (inactive); GI50 (HOP-18): > 100 µM (inactive)
C[C@H]1CCC2C(OC(=O)[C@@H]2CN(C)C)[C@]2(C)C(=O)C=CC12O (stereo partly drawn),2.93 µM (inactive),2.17 µM (inactive),4.27 µM (inactive),GI50 (LXFL 529): 3.01 µM (inactive); GI50 (RXF 631): 1.31 µM (inactive); GI50 (HOP-18): 24.2 µM (inactive); GI50 (M19-MEL): 4.26 µM (inactive)
CCN(CC)CCCNC(=O)c1ccc([N+](=O)[O-])cc1O,> 100 µM (inactive),> 100 µM (inactive),–,GI50 (LXFL 529): > 100 µM (inactive); GI50 (SNB-78): > 100 µM (inactive); GI50 (RXF 631): > 100 µM (inactive)
O=C(N/N=C/c1cccc(F)c1)c1ccncc1,> 100 µM (inactive),> 100 µM (inactive),–,GI50 (LXFL 529): > 100 µM (inactive); GI50 (XF498): > 100 µM (inactive); GI50 (HOP-18): > 100 µM (inactive)
COc1cccc2cc(C(=O)O)c(=O)oc12,–,–,> 100 µM (inactive),–
Nc1ccc([As](=O)(O)O)cc1 [ARSANILIC ACID],–,–,> 100 µM (inactive),–
